Like-named read-outs stand apart in the source and are kept apart here.

The IC50 is the midpoint of a concentration-inhibition curve.

For test [1], the target named is T1, USP25 (Homo sapiens, UniProt Q9UHP3).
T1 construct: purchased R&D Systems
T1 sequence (Q9UHP3 1-1055): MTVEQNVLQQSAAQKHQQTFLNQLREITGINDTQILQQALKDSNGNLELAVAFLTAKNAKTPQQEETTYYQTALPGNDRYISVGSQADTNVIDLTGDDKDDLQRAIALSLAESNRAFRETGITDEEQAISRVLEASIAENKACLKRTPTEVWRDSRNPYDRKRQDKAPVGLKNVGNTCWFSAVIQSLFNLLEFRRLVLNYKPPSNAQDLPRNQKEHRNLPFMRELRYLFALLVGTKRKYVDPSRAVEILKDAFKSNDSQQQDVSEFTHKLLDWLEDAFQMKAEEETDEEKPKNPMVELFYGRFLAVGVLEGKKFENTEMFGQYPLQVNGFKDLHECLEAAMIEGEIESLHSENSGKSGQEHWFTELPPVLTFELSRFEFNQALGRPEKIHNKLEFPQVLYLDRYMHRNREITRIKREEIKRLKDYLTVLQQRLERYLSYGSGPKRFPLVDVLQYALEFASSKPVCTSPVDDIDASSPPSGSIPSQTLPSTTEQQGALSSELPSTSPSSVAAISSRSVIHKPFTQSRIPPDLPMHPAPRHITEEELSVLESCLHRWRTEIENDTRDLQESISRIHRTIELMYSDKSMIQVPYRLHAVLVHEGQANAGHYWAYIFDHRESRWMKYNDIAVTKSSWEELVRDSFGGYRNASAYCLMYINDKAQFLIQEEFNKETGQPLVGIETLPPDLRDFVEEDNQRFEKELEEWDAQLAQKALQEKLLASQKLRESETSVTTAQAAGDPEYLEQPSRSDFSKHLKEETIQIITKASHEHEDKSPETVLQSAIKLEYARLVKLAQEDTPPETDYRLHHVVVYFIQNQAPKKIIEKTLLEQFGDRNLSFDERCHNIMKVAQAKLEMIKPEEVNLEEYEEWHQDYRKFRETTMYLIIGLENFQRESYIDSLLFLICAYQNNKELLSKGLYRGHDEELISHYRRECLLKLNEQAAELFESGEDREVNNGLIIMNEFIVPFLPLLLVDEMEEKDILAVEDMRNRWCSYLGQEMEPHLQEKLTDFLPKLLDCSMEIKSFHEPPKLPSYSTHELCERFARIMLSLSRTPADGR
As to the kind of experiment: USP25 activity measured using ubiquitin-rhodamine 110 method. Type of test: biochemical. The conditions noted are these: for IC50: purified USP25 15 nM, ubiquitin-rhodamine 110 125 nM, 30 min preincubation. Here is the method:
USP25 activity was measured using ubiquitin-rhodamine 110 method.
(§1) Purified USP25 and the ubiquitin-rhodamine 110 substrate used for measuring DUBs activity were both from R&D Systems. Test compounds were first dissolved in DMSO to prepare a 10 mM stock solution, and then the stock solution was diluted with a buffer solution [containing 20 mM Tris-HCl (pH 8.0), 2 mM CaCl2), 3 mM BME, 0.01% Prionix, 0.01% Triton X-100] to the desired concentration (with DMSO content less than or equal to 0.5%). The dilution was mixed well with USP25 (final concentration 15 nM) in a 96-well plate and incubated at room temperature for 30 min, and then added with the substrate (ubiquitin-rhodamine 110) to 125 nM. The final volume of the whole reaction system was 20 μL. The released fluorescence (excitation wavelength 485 nm, emission wavelength 535 nm) was detected immediately on a microplate reader after the addition of the substrate, and the inhibitory rate of the test compound against USP25 was calculated according to the following formula: Inhibition %=1−[(test compound+fluorescence value of substrate−fluorescence value of test compound (no substrate))/mean fluorescence value of DMSO control group−fluorescence value of test compound (no substrate)]
As in Example 11, according to the inhibitory rates of the test compound against USP25 under different concentrations, IC50 was calculated.

For test [2], the target named is T2, USP28 (Homo sapiens, UniProt Q96RU2).
T2 construct: purchased R&D Systems
T2 sequence (Q96RU2 1-1077): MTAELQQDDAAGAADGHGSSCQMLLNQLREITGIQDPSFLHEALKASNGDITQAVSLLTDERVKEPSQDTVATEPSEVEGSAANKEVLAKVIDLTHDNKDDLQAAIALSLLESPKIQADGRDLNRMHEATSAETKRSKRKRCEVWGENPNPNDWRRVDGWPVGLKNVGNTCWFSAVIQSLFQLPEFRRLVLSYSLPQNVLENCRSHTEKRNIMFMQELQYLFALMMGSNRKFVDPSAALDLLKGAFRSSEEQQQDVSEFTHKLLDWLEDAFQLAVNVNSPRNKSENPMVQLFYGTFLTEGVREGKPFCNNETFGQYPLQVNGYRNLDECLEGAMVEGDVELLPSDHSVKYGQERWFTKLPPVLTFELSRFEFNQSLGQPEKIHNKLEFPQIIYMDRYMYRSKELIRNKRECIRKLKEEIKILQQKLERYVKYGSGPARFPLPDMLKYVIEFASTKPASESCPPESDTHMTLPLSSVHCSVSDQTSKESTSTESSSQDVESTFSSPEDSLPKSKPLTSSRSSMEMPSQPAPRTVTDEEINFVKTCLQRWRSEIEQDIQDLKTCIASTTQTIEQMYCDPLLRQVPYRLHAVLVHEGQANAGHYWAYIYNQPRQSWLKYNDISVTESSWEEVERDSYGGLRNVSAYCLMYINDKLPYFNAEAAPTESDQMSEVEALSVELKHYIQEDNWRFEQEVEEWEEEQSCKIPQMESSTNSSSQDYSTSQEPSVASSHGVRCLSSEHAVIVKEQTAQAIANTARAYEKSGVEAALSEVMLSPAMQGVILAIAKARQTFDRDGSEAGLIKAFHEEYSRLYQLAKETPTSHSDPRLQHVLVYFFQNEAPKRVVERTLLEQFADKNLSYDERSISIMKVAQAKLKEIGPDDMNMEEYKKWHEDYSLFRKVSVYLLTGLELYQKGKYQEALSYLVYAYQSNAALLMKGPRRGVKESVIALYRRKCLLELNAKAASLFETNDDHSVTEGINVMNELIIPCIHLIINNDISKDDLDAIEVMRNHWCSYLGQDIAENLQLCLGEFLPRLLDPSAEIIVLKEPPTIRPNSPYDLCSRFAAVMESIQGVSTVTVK
As to the kind of experiment: USP28 activity measured using ubiquitin-rhodamine 110 method. Type of test: biochemical. To be noted: for IC50: purified USP28 4 nM, ubiquitin-rhodamine 110 125 nM, 30 min preincubation. The protocol:
USP28 activity was measured using ubiquitin-rhodamine 110 method.
as §1, with “USP28” for “USP25”, “4” for “15”, “substrate. The” for “substrate, and the”
According to the inhibitory rates of the test compound against USP28 under different concentrations, IC50 was calculated.

Where [3] appears, read: read-out: Inhibitory activity against USP25 (IC50).
The mark [4] stands for this setting: Inhibitory activity against USP28 (IC50).
Where [5] appears, read: read-out: Inhibitory activity against USP28 (IC50).
[6] abbreviates: ratio of IC50 of related 3-NH2 compound (F) to IC50 of 3-NHMe compound disclosed herein (E).
The mark [7] stands for this setting: Inhibitory activity against USP25 (IC50).

Consider `CNc1c(C(=O)NC2COc3cc(N4CC5CCC(C4)N5)ccc3C2)sc2nc(C)cnc12` (single isomer, unassigned) [Compound I-87], for which the IC50 in test [1] (setting [3]) was 100 to 1000 nM; in test [2] (setting [4]), below 100 nM.
Take `CNc1c(C(=O)NCCc2ccc(N3C[C@H]4CC[C@@H](C3)N4)c(F)c2F)sc2nc(C)ccc12` [Compound I-46]: the results for the IC50 in test [1] (setting [3]) and in test [2] (setting [5]) were 5000 to 10000 nM and 100 to 1000 nM, respectively.
With `CNc1c(C(=O)NCCc2ccc(N3CC4CCC(C3)N4)cc2)sc2nc(C(C)C)cnc12` [Compound I-73], the IC50 was 100 to 1000 nM in test [1] (setting [3]) and below 100 nM in test [2] (setting [4]).
As for `CNc1c(C(=O)NCCc2ccc(N3C[C@H]4CC[C@@H](C3)N4)cc2)sc2nccc(C)c12` [Compound I-20], the IC50 in test [1] (setting [3]) and in test [2] (setting [5]) was 100 to 1000 nM in each case.
As for `CNc1c(C(=O)NCCc2cc(F)c(N3C[C@H]4CC[C@@H](C3)N4)c(Cl)c2)sc2nc(C)ccc12` [Compound I-44], the 50% inhibitory concentration (IC50) is above 10000 nM in test [1] (setting [3]) and below 100 nM in test [2] (setting [4]).
With `CNc1c(C(=O)NCCc2ccc(N3CCNCC3)cc2)sc2nc(C)ccc12` [Compound I-2], the IC50 in test [1] (setting [3]) and in test [2] (setting [5]) was 100 to 1000 nM each time.
Take `CNc1c(C(=O)NCCc2ccc(N3C[C@H]4CC[C@@H](C3)N4)c(C)c2)sc2nc(C)ccc12` [Compound I-33]: the IC50 in test [1] (setting [3]) is 5000 to 10000 nM; in test [2] (setting [4]), below 100 nM.
`CCc1cnc2c(NC)c(C(=O)NCCc3ccc(N4C[C@H]5CC[C@@H](C4)N5)cc3)sc2n1` [Compound I-72]: the concentration for half-maximal inhibition (IC50) in test [1] (setting [3]) is 100 to 1000 nM; in test [2] (setting [4]) it was below 100 nM.
With `CNc1c(C(=O)NCCc2ccc(OC)c(OC)c2)sc2nc(C)ccc12` [Compound I-58], the results for the concentration for half-maximal inhibition (IC50) in test [1] (setting [3]) and in test [2] (setting [5]) were above 10000 nM and 100 to 1000 nM, respectively. In test [1] (setting [6]), the “IC50(F)/IC50(E) USP25” value is above 8. In addition, the “IC50(F)/IC50(E) USP28” value in test [2] (setting [6]) is on record as 5.0.
Regarding `CCc1cc(CCNC(=O)c2sc3nc(C)ccc3c2NC)ccc1N1[C@@H]2CC[C@H]1CNC2` [Compound I-34], the half-maximal inhibitory concentration (IC50) in test [1] (setting [3]) is 100 to 1000 nM; in test [2] (setting [4]), below 100 nM.
Consider `CNc1c(C(=O)NCC(C)(C)c2ccc(N3CC4CCC(C3)N4)cc2F)sc2nc(C)ccc12` [Compound I-92], for which the IC50 in test [1] (setting [3]) is above 10000 nM; in test [2] (setting [5]), 1000 to 5000 nM.
`CNc1c(C(=O)NCCc2cc(F)c(N3C[C@H]4CC[C@@H](C3)N4)cc2F)sc2nc(C)cnc12` [Compound I-78]: the 50% inhibitory concentration (IC50) in test [1] (setting [7]) and in test [2] (setting [4]) was below 100 nM each time.
With `CNc1c(C(=O)N[C@H]2Cc3ccc(N4CC5CCC(C4)N5)cc3C2)sc2nc(C)ccc12` [Compound I-84], the IC50 in test [1] (setting [3]) was above 10000 nM; in test [2] (setting [5]) it was 1000 to 5000 nM.
In the case of `CNc1c(C(=O)NCCc2ccc(N3C[C@H]4CC[C@@H](C3)N4)cc2)sc2nc(C)c(F)cc12` [Compound I-29], the 50% inhibitory concentration (IC50) in test [1] (setting [3]) was 100 to 1000 nM; in test [2] (setting [4]), below 100 nM.
Take `CNc1c(C(=O)NCCc2ccc(N3C[C@H]4CC[C@@H](C3)N4)c(C3CC3)c2)sc2nc(C)ccc12` [Compound I-35]: the IC50 in test [1] (setting [3]) is 100 to 1000 nM; in test [2] (setting [4]), below 100 nM.
Take `CNc1c(C(=O)NCCc2ccc(N3C[C@H]4CC[C@@H](C3)N4)cc2)sc2nc(C)cc(C(F)(F)F)c12` [Compound I-27]: the IC50 in test [1] (setting [7]) and in test [2] (setting [4]) was below 100 nM throughout.
Turning to `CNc1c(C(=O)NC[C@H](C)c2ccc(N3C[C@H]4CC[C@@H](C3)N4)cc2)sc2nc(C)ccc12` [Compound I-67], the IC50 in test [1] (setting [3]) and in test [2] (setting [5]) was 100 to 1000 nM each time.
`CNc1c(C(=O)NC2COc3cc(N4CC5CCC(C4)N5)ccc3C2)sc2nc(C)cnc12` (single isomer, unassigned) [Compound I-88]: the half-maximal inhibitory concentration (IC50) in test [1] (setting [3]) and in test [2] (setting [5]) was 1000 to 5000 nM in each case.
For the compound `CNc1c(C(=O)NCCc2ccc(N3C[C@H]4CC[C@@H](C3)N4)cc2)sc2ncc(F)cc12` [Compound I-18], the results for the IC50 in test [1] (setting [3]) and in test [2] (setting [5]) were above 10000 nM and 100 to 1000 nM, respectively.
On to `CCc1nc2sc(C(=O)NCCc3ccc(N4C[C@H]5CC[C@@H](C4)N5)cc3)c(NC)c2cc1C` [Compound I-31], for which the figures for the IC50 in test [1] (setting [3]) and in test [2] (setting [4]) were 100 to 1000 nM and below 100 nM, respectively.
Consider `CNc1c(C(=O)NCCc2ccc(N3C[C@H]4CC[C@@H](C3)N4)c(OC)c2)sc2nc(C)ccc12` [Compound I-36], for which the concentration for half-maximal inhibition (IC50) in test [1] (setting [7]) and in test [2] (setting [4]) was below 100 nM in each case.
With `CNc1c(C(=O)NCCc2ccc(N3CC4CC3CN4)cc2)sc2nc(C)ccc12` (centres unmarked) [Compound I-8], the IC50 in test [1] (setting [3]) and in test [2] (setting [5]) was below 100 nM in each case.
As for `CCc1nc2sc(C(=O)NCCc3c[nH]c4ccccc34)c(NC)c2cc1C` [Compound I-52], the IC50 was 5000 to 10000 nM in test [1] (setting [3]) and below 100 nM in test [2] (setting [5]).
Consider `CNc1c(C(=O)N[C@@H]2Cc3ccc(N4CC5CCC(C4)N5)cc3C2)sc2nc(C)ccc12` [Compound I-83], for which the IC50 in test [1] (setting [3]) was in the range of 5000 to 10000 nM; in test [2] (setting [5]) it was 100 to 1000 nM.
